In US6518278B1, “Carcinostatic substance for compatible administration, process of administrating same and process of rapidly inspecting same” (Debio Pharm S.A., priority 1994, dated 2003):
“Also recorded” adds a separate entry of the source.

Key:
[1] = test system: human leutecyte strain cells (RPMI-8402); experiment: Rapid inspection of carcinostatic substances by counting divided cells with DAPI; assay type: cell-based
Experimental: After over a certain number of cancer cells are prepared by cultivation, a carcinostatic substance is added to the cancer cells. The number of the cells under the cell division at the respective measuring times is counted while continuing the cultivation. […] Accordingly, the effectiveness of the carcinostatic substance can be inspected by counting the number of the cells under the cell division among a certain number (for example, one thousand) of cells several times, comparing the said number with that of the former counting or the previous counting thereof and grasping the progress of the cell division by means of the increase or the decrease of the above comparison. If the DAPI is added with the carcinostatic substance during this procedure, the accurate counting of the number of the divided cells can be performed because the cells under the any phase of the cell division can be recognized. When the number of the divided cells decreases as a result of the comparison between the measurement values, it is judged that the multiplication of the cancer cells is depressed, or the function of the carcinostatic substance is performed. When, on the other hand, the number of the divided cells increases compared with the control, a certain function of the carcinostatic substance is judged to be performed. […] To the respective cultivation liquids were added, together with 1 μg/ml of the DAPI, (1) the control (no addition of the carcinostatic substance), (2) 5 μg/ml of CPT (camptotecin), (3) 10 μg/ml of CPT-11 ([…]), (4) 0.06 μg/ml of ADR (adriamycin), (5) 0.05 μg/ml of DNR (daunomycin), (6) 1 μ/ml of etoposide, (7) 20 μg/ml of MST-16 (sopsoxane), (8) 1 μg/ml of […]), (9) μg/ml of Act-D (actinomycin D), (10) 0.1 μg/ml of mitoxantrone. (11) 20 μg/ml of 5-FU, (12) 10 μg/ml of Ara-C (cytosinarabinoside) (13) 50 μg/ml of hydroxyurea, (14) 2 μg/ml of Aphidicolin, (15) 10 μg/ml of MTX (mesotroxate), (16) 0.05 μg/ml of VCR (vincristin), (17) 0.05 μg/ml of […]). (5) μg/ml of cisplatin, (18) 10 μg/ml of bleomycin, (20)10 μg/ml of MMC (mitomycin C) and (21) 5 μg/ml of cyclophospamide (endoxane). The samples were sampled from the respective cultivation liquids after one hour, […], 24 hours and then every 24 hour from the initiation of the cultivation. The samples were evaluated in accordance with the procedures of the preceding Examples. The results are shown in a graph of FIG. 15.

[2] = test system: human leutecyte strain cell (RPMI-8402); experiment: Extinction effect of compatible administration of l-OHP and a compatible agent on tumor cells (compatible efficiency OE); assay type: cell-based; settings: for Compatible Effects of l-OHP and Compatible Agent, Simultaneous Administration: both added day 1
Experimental: In the evaluation of the extinction effect of the tumor cells of the respective combinations, a pure extinction effect produced by the compatible administration of the compatible agent and the l-OHP is calculated by subtracting an extinction effect of a control (no carcinostatic substance is employed).
The compatibly administration effect is calculated by employing an Equation (1) described later. When the value (%) calculated by this Equation is between 85 and 115%, the compatible administration effect is evaluated to be an additive effect. When the value is below 85%, it is evaluated to be below the additive effect. When the value is over 115%, it is evaluated to be a synergistic effect, ±15% is a reliability limit or a measurement error.
A target tumor cell was a human leutecyte strain cell (RPMI-8402 of Gibuko K.K.). To these cells was added blood serum of a cow embryo (15%, Gibuko K.K.) to prepare a cell floating liquid of which the number of the cells was 10^6/ml in a cultivation bottle (tradename; Sumiron of Sumitomo Bakelite o., Ltd.) having a volume of 6 ml. A plenty of the cultivation bottles having the cell floating liquid therein were prepared, and the following experiments were conducted while selecting one kind of a compatible agent among cisplatin, 5-FU, irinotecane, adriamycin, etoposide, mitomycin, mitoxantrone, bleomycin, vincristin and vindecin. The time schedules of the controls (no addition of medicines, addition of only the l-OHP and addition of only a compatible agent, and specified in the below items (1) to (4)) and of the compatible administration of the compatible agent and the l-OHP are shown in FIG. 10.
(1) No medicine was added (control).
(2) Only the l-OHP was added at a second day.
(3) A large amount of compatible agents were added at a first day ([…] of the cisplatin, 10 μg/ml of the 5-FU, 0.05 μg/ml of the adriamycin and 1 μg/ml of the etoposide, and for the comparison purpose, 0.05 μg/ml of the vincristin and 0.06 μg/ml of the vindecin). The adding amount of the irinotecano was fixed to 10 μg/ml, and the addition amount of the l-OHP was 5 μg/ml.
(4) A small amount of compatible agents were added at a first day (0.5 μg/ml of the cisplatin, 5 μg/ml of the 5-FU, 0.01 μg/ml of the adriamycin and 0.5 μg/ml of the etoposide, and for the comparison purpose, 0.01 μg/ml of the vincristin and 0.01 μg/ml of the vindecin). The adding amount of the irinotecane was fixed to 10 μg/ml, and the addition amount of the l-OHP was 1 μg/ml.
(5) The l-OHP and a large amount (the same as that of the above item (3) and so forth in the following items) of the compatible agents were simultaneously added at a first day.
(6) The l-OHP and a small amount (the same as that of the above item (4) and so forth in the following items) of the compatible agents were simultaneously added at a first day.
(7) The l-OHP was added at a first day and a large amount of the compatible agents were added at a second day.
(8) The l-OHP was added at a first day and a small amount of the compatible agents were added at a second day.
(9) The l-OHP was added at a first day and a large amount of the compatible agents were added at a third day.
(10) The l-OHP was added at a first day and a small amount of the compatible agents were added at a third day.
(11) The l-OHP was added at a first day and a large amount of the compatible agents were added at a fourth day.
(12) The l-OHP was added at a first day and a small amount of the compatible agents were added at a fourth day.
(13) A large amount of the compatible agents were added at a first day and the l-OHP was added at a second day.
(14) A small amount of the compatible agents were added at a first day and the l-OHP was added at a second day.
(15) A large amount of the compatible agents were added at a first day and the l-OHP was added at a third day.
(16) A small amount of the compatible agents were added at a first day and the l-OHP was added at a third day.

[3] = larger dosage of compatible agent (μg/ml: cisplatin 1, 5-FU 10, irinotecane 10, adriamycin 0.05, vincristin 0.05, vindecin 0.05, etoposide 1, bleomycin 10, mitoxantrone 0.1, mitomycine 1), l-OHP 1 μg/ml (5 μg/ml with irinotecane) added day 1
[4] = larger dosage of compatible agent (μg/ml: cisplatin 1, 5-FU 10, irinotecane 10, adriamycin 0.05, vincristin 0.05, vindecin 0.05, etoposide 1, bleomycin 10, mitoxantrone 0.1, mitomycine 1), l-OHP 1 μg/ml (5 μg/ml with irinotecane)
[5] = larger dosage of compatible agent added day 1 (μg/ml: cisplatin 1, 5-FU 10, irinotecane 10, adriamycin 0.05, vincristin 0.05, vindecin 0.05, etoposide 1, bleomycin 10, mitoxantrone 0.1, mitomycine 1), l-OHP 1 μg/ml (5 μg/ml with irinotecane)
[6] = smaller dosage of compatible agent (μg/ml: cisplatin 0.5, 5-FU 5, irinotecane 10, adriamycin 0.01, vincristin 0.01, vindecin 0.01, etoposide 0.5, bleomycin 1, mitoxantrone 0.05, mitomycine 0.5), l-OHP 1 μg/ml added day 1
[7] = smaller dosage of compatible agent (μg/ml: cisplatin 0.5, 5-FU 5, irinotecane 10, adriamycin 0.01, vincristin 0.01, vindecin 0.01, etoposide 0.5, bleomycin 1, mitoxantrone 0.05, mitomycine 0.5), l-OHP 1 μg/ml
[8] = smaller dosage of compatible agent added day 1 (μg/ml: cisplatin 0.5, 5-FU 5, irinotecane 10, adriamycin 0.01, vincristin 0.01, vindecin 0.01, etoposide 0.5, bleomycin 1, mitoxantrone 0.05, mitomycine 0.5), l-OHP 1 μg/ml

Question: Which “number of the divided cells compared with the control (FIG. 15)” value ([1]; 0.05 μg/ml VCR, 0.05 μg/ml VDS, 20 μg/ml MST-16, with 1 μg/ml DAPI) does the source give for CC(C)COC(=O)OCN1C(=O)CN(CCN2CC(=O)N(COC(=O)OCC(C)C)C(=O)C2)CC1=O [MST-16, sopsoxane] here?
Answer: The value was “increase of the number of the divided cells was momentarily observed”.

Question: And the “division phases of the divided cells (microscope observation)” value ([1]; ratio of the divided cells increased after the initiation of the cultivation, no anaphase or telophase cells observed)?
Answer: The value was “the division prophase and the division metaphase”.

Question: How did the “compatible administration effect with l-OHP, summary in words” value [2] turn out when COc1cc([C@@H]2c3cc4c(cc3[C@@H](O[C@@H]3O[C@@H]5CO[C@@H](C)O[C@H]5[C@H](O)[C@H]3O)[C@H]3COC(=O)[C@H]23)OCO4)cc(OC)c1O [etoposide] was run?
Answer: Its value is “the additive effect or the synergistic effect regardless of the administration method and the dosage in almost all the cases; also recorded: synergistic effects can be obtained in almost all the combinations when the l-OHP is added later”.

Question: What about the “Compatible Effects of l-OHP and Compatible Agent, Time Lag Administration, Addition Administration of Compatible Agent day 2” value (“Compatible Effects … of Compatible Agent day 2” for short) [2, 3] of the same compound?
Answer: The value was “◯ (◯: Additive Effect)”.

Question: And the “Compatible Effects of l-OHP and Compatible Agent, Time Lag Administration, Addition Administration of Compatible Agent day 3” value (“Compatible Effects … of Compatible Agent day 3” below) [2, 3]?
Answer: The value was “◯ (◯: Additive Effect)”.

Question: What about the “Compatible Effects of l-OHP and Compatible Agent, Time Lag Administration, Addition Administration of Compatible Agent day 4” value (shortened to “Compatible Effects … of Compatible Agent day 4”) [2, 3] of the same compound?
Answer: Its value is “Δ (Δ: Below Additive Effect)”.

Question: What about the “Compatible Effects of l-OHP and Compatible Agent, Simultaneous Administration” value (“Compatible Effects … Simultaneous Administration” for short) [2, 4] of the same compound?
Answer: The value was “◯ (◯: Additive Effect)”.

Question: What about the “Compatible Effects of l-OHP and Compatible Agent, Time Lag Administration, Addition Administration of l-OHP day 2” value (“Compatible Effects … of l-OHP day 2” for short) [2, 5] of the same compound?
Answer: Its value is “• (•: Synergistic Effect)”.

Question: What about the “Compatible Effects of l-OHP and Compatible Agent, Time Lag Administration, Addition Administration of l-OHP day 3” value (“Compatible Effects … of l-OHP day 3” for short) [2, 5] of the same compound?
Answer: The value was “• (•: Synergistic Effect)”.

Question: What about the “Compatible Effects of l-OHP and Compatible Agent, Time Lag Administration, Addition Administration of l-OHP day 4” value (“Compatible Effects … of l-OHP day 4” for short) [2, 5] of the same compound?
Answer: Its value is “• (•: Synergistic Effect)”.

Question: And the “Compatible Effects … of Compatible Agent day 2” value [2, 6]?
Answer: Its value is “◯ (◯: Additive Effect)”.

Question: And the “Compatible Effects … of Compatible Agent day 3” value [2, 6]?
Answer: The value was “• (•: Synergistic Effect)”.

Question: And the “Compatible Effects … of Compatible Agent day 4” value [2, 6]?
Answer: The value was “◯ (◯: Additive Effect)”.

Question: What about the “Compatible Effects … Simultaneous Administration” value [2, 7] of the same compound?
Answer: The value was “◯ (◯: Additive Effect)”.

Question: And the “Compatible Effects … of l-OHP day 2” value [2, 8]?
Answer: Its value is “• (•: Synergistic Effect)”.

Question: And the “Compatible Effects … of l-OHP day 3” value [2, 8]?
Answer: Its value is “• (•: Synergistic Effect)”.

Question: What about the “Compatible Effects … of l-OHP day 4” value [2, 8] of the same compound?
Answer: Its value is “• (•: Synergistic Effect)”.

Question: With bleomycin as the compound, how does the “compatible administration effect with l-OHP, summary in words” value [2] read?
Answer: Its value is “the additive effect or the synergistic effect regardless of the administration method and the dosage in almost all the cases; also recorded: synergistic effects can be obtained in most combinations when the l-OHP is added later at a third day and a fourth day”.

Question: What about the “Compatible Effects … of Compatible Agent day 2” value [2, 3] of the same compound?
Answer: Its value is “Δ (Δ: Below Additive Effect)”.

Question: What about the “Compatible Effects … of Compatible Agent day 3” value [2, 3] of the same compound?
Answer: The value was “◯ (◯: Additive Effect)”.

Question: And the “Compatible Effects … of Compatible Agent day 4” value [2, 3]?
Answer: Its value is “• (•: Synergistic Effect)”.

Question: What about the “Compatible Effects … Simultaneous Administration” value [2, 4] of the same compound?
Answer: Its value is “Δ (Δ: Below Additive Effect)”.

Question: What about the “Compatible Effects … of l-OHP day 2” value [2, 5] of the same compound?
Answer: Its value is “Δ (Δ: Below Additive Effect)”.

Question: And the “Compatible Effects … of l-OHP day 3” value [2, 5]?
Answer: Its value is “• (•: Synergistic Effect)”.

Question: And the “Compatible Effects … of l-OHP day 4” value [2, 5]?
Answer: The value was “• (•: Synergistic Effect)”.

Question: And the “Compatible Effects … of Compatible Agent day 2” value [2, 6]?
Answer: The value was “Δ (Δ: Below Additive Effect)”.

Question: And the “Compatible Effects … of Compatible Agent day 3” value [2, 6]?
Answer: The value was “• (•: Synergistic Effect)”.

Question: And the “Compatible Effects … of Compatible Agent day 4” value [2, 6]?
Answer: Its value is “Δ (Δ: Below Additive Effect)”.

Question: And the “Compatible Effects … Simultaneous Administration” value [2, 7]?
Answer: The value was “• (•: Synergistic Effect)”.

Question: What about the “Compatible Effects … of l-OHP day 2” value [2, 8] of the same compound?
Answer: Its value is “◯ (◯: Additive Effect)”.

Question: What about the “Compatible Effects … of l-OHP day 3” value [2, 8] of the same compound?
Answer: Its value is “• (•: Synergistic Effect)”.

Question: And the “Compatible Effects … of l-OHP day 4” value [2, 8]?
Answer: The value was “◯ (◯: Additive Effect)”.
